The subject of series [1] is NCI-H2052 cells. Description: Tumor cell proliferation inhibition experiment (Cell Titer Glo), NCI-H2052. It is filed as cell-based. The settings on record: NCI-H2052 lung cancer cells, three days incubation. Here is the method:
(§1) Cell Titer Glo luminescent cell viability assay kit was used to quantify the ATP content in cells, so as to quantify the number of viable cells. […] On the second day, the compound was added to the 96-well plate after a three-fold serial dilution to eight concentrations, and incubated at 37° C. for three days in the 5% carbon dioxide incubator. The culture medium was treated with the addition of Cell Titer Glo luminescent cell viability assay kit (Promega G7570) reagent, incubated for 10 minutes, and then placed in Envision (Pelkin Elmer) to read the luminescence signal. DMSO was used instead of the compound as a control to calculate the inhibition rate (inhibition rate %=(1−compound signal/DMSO signal)*100), and then standard four parameter curve fitting was used to calculate the inhibitory activity IC50.

Series [2] in a line: Pharmacokinetic evaluation experiment in mice (IV and PO). In kind it is in vivo. Particulars: male ICR mice; for Vd: read-out: Vss. On the procedure: 120 healthy adult male ICR mice were selected and divided into 20 groups according to the principle of similar body weight, with 6 mice in each group of IV (10 groups) and 6 mice in each group of PO (10 groups). An appropriate amount of sample was weighed, sequentially added with an appropriate amount of DMA, Solutol, and Saline according to the volume ratio of 10:10:80, and stirred and sonicated to achieve a clarification of 1 mg/mL. After overnight fasting, mice in the IV group were intravenously administered with a volume of 5 mL/kg and a dose of 5 mg/kg, respectively; and mice in the PO group were intragastrically administered with a volume of 30 mL/kg and a dose of 30 mg/kg, respectively. Interleaved sampling was performed on every 6 mice after administration of the test compound. In the IV group, approximately 30 μL of blood was collected at 0.0833, 0.25, 0.5, 1, 2, 4, 6, 8, and 24 hours, and placed in a commercial anticoagulant tube pre-filled with EDTA-K2. In the PO group, approximately 30 μL of blood was collected at 0.25, 0.5, 1, 2, 4, 6, 8, and 24 hours, and placed in the commercial anticoagulant tube pre-filled with EDTA-K2. The tubes were centrifuged for 15 minutes to separate the plasma, and the plasma was stored at −80° C. Animals were allowed to eat 2 hours after administration. The content of the test compound in the plasma of mice after intravenous and intragastric administration was determined by LC/MS/MS method. The linear range of the method was 1.00 to 1000 ng/mL: plasma samples were analyzed after protein precipitation.

For series [3], the system named is MSTO-211H cells. Nature of the series: Tumor cell proliferation inhibition experiment (Cell Titer Glo), MSTO-211H. In kind it is cell-based. The settings on record: MSTO-211H lung cancer cells, three days incubation. On the procedure:
as §1
In general terms: Cellular ATP, detected with luciferase, serves as a proxy for viable cell number.

Setting [4] is: mouse, plasma, PO 30 mg/kg vs IV 5 mg/kg.
The mark [5] stands for this setting: mouse, IV 5 mg/kg, plasma, read-out: AUC.
The mark [6] stands for this setting: mouse, PO 30 mg/kg, plasma, read-out: AUC.
Setting [7] is: mouse, PO 30 mg/kg, plasma, read-out: Cmax.
The mark [8] stands for this setting: mouse, PO 30 mg/kg, plasma, read-out: Tmax.

Results on nine compounds are retold here after US20240368134A1, “AROMATIC COMPOUND, PHARMACEUTICAL COMPOSITION, AND APPLICATION THEREOF” (SHANGHAI KYGENT PHARMACEUTICAL CO., LTD, priority 2021, published 2024).

One may read the IC50 as the concentration that gives 50% inhibition. Read a low IC50 as higher potency. For orientation: half-life means the time in which the quantity being followed falls by half. For orientation: AUC means concentration integrated over time. The Cmax is the peak of the concentration-time curve. The term Tmax denotes the time from dosing to the highest level.

Structures are written as SMILES. Like-named read-outs stand apart in the source and are kept apart here.

With `CNC(=O)c1cc2c(c(F)c1-c1c(Cl)c(F)cc3c1C[C@](c1ccccc1)([C@@H]1CCCN1)O3)CCC2` [Compound 31a], the IC50 amounted to 250 nM in series [1] (Homo sapiens, 72 h) and 200 nM in series [3] (Homo sapiens, 72 h). Further, in series [2] (setting [4]), the bioavailability came out at 44.6%. In series [2] (mouse, IV 5 mg/kg, plasma), this compound displayed a clearance of 17.9 mL/min/kg. In series [2] (mouse, IV 5 mg/kg, plasma), this compound showed a half-life of 3.52 h. In addition, the area under the curve (AUC) worked out at 2790 ng·h/mL in series [2] (setting [5]) and 7470 ng·h/mL in series [2] (setting [6]). Moreover, the Vd in series [2] (mouse, IV 5 mg/kg, plasma) worked out at 4.44 L/kg. Besides, the Cmax in series [2] (setting [7]) stood at 928 ng/mL. In addition, the Tmax in series [2] (setting [8]) amounted to 1 h.

The compound `CNC(=O)c1cc2c(c(F)c1-c1c(Cl)c(F)cc3c1C[C@](c1ccccc1)([C@@H]1CC4(CC4)CN1)O3)C1CC1O2` (stereo partly drawn) [Compound 16a] had an IC50 in series [1] (Homo sapiens, 72 h) of 1850 nM. The bioavailability in series [2] (setting [4]) came to 40.3%. In series [2] (mouse, IV 5 mg/kg, plasma), the clearance was found to be 56.4 mL/min/kg, the half-life was 2.28 h and the Vd is 11.4 L/kg. Besides, the AUC in series [2] (setting [5]) amounted to 1480 ng·h/mL. The AUC in series [2] (setting [6]) turned out to be 3570 ng·h/mL. In addition, the Cmax in series [2] (setting [7]) came to 434 ng/mL. The Tmax in series [2] (setting [8]) is 2 h. This compound had an IC50 in series [3] (Homo sapiens, 72 h) of 1730 nM.

Compound `CNC(=O)c1cc2c(c(F)c1-c1c(Cl)c(F)cc3c1C[C@@](CN[C@H]1CC[C@H](O)CC1)(c1ccccc1)O3)C1CC1O2` (stereo partly drawn) [Compound 13a] returned an IC50 in series [1] (Homo sapiens, 72 h) of 210 nM. For the same compound, the bioavailability in series [2] (setting [4]) came out at 108%. Further, in series [2] (mouse, IV 5 mg/kg, plasma), the clearance amounted to 41.4 mL/min/kg, the half-life is 2.23 h and the Vd was found to be 8.5 L/kg. In addition, the AUC in series [2] (setting [5]) amounted to 2010 ng·h/mL. The area under the curve (AUC) in series [2] (setting [6]) amounted to 13100 ng·h/mL. Besides, in series [2] (setting [7]), the Cmax turned out to be 2050 ng/mL. Also, in series [2] (setting [8]), the Tmax came out at 2 h. This compound also displayed an IC50 in series [3] (Homo sapiens, 72 h) of 200 nM.

Turning to `CNC(=O)c1cc2c(c(F)c1-c1c(Cl)c(F)cc3c1C[C@](c1ccccc1)([C@@H]1CCCN1)O3)CCC2O` (stereo partly drawn) [Compound 41a], the IC50 was determined as 420 nM in series [1] (Homo sapiens, 72 h) and 190 nM in series [3] (Homo sapiens, 72 h). Moreover, in series [2] (setting [4]), the bioavailability is 61.8%. Besides, the clearance in series [2] (mouse, IV 5 mg/kg, plasma) is 36.5 mL/min/kg. Besides, the half-life in series [2] (mouse, IV 5 mg/kg, plasma) is 2.19 h. For the same compound, the AUC in series [2] (setting [5]) came to 2280 ng·h/mL; in series [2] (setting [6]), 8460 ng·h/mL. Also, in series [2] (mouse, IV 5 mg/kg, plasma), the Vd was determined as 5.32 L/kg. The Cmax in series [2] (setting [7]) amounted to 1270 ng/mL. Also, the Tmax in series [2] (setting [8]) was 2 h.

In series [1], `CNC(=O)c1cc2c(c(F)c1-c1c(Cl)c(F)cc3c1C[C@@](CN[C@H]1CC[C@](C)(O)CC1)(c1ccccc1)O3)C1CC1O2` (stereo partly drawn) [Compound 14a] displayed an IC50 of 360 nM. In series [2] (IV 5 mg/kg, plasma), the “AUC” value turned out to be 3462 ng·h/mL, the “CL” value amounted to 24.1 mL/min/kg, the “T1/2” value is 2.35 h and the “Vss” value is 4.34 L/kg. In series [2] (PO 30 mg/kg vs IV 5 mg/kg), the F % is on record as 102.1%. In series [2] (PO 30 mg/kg, plasma), the “AUC” value was 21209 ng·h/mL, the “Cmax” value is 2697 ng/mL and the “Tmax” value was 2.00 h. The same compound showed an IC50 in series [3] of 320 nM.

In series [1] (Homo sapiens, 72 h), `CNC(=O)c1cc2c(c(F)c1-c1c(Cl)c(F)cc3c1C[C@](c1ccccc1)([C@@H]1CCCN1)O3)OC1CC21` (stereo partly drawn) [Compound 17a] came in with an IC50 of 90 nM. Further, the bioavailability in series [2] (setting [4]) was found to be 52.2%. For the same compound, in series [2] (mouse, IV 5 mg/kg, plasma), the clearance was 75.8 mL/min/kg, the half-life is 1.79 h and the Vd was 11.7 L/kg. Also, the AUC in series [2] (setting [5]) was found to be 1100 ng·h/mL. The AUC in series [2] (setting [6]) worked out at 3450 ng·h/mL. In addition, in series [2] (setting [7]), the Cmax was 424 ng/mL. Besides, the Tmax in series [2] (setting [8]) is 1.33 h. Moreover, the IC50 in series [3] (Homo sapiens, 72 h) was determined as 80 nM.

For the compound `CNC(=O)c1cc2c(c(F)c1-c1c(Cl)c(F)cc3c1C[C@](c1ccccc1)([C@@H]1CC4(CC4)CN1)O3)OC1CC21` (stereo partly drawn) [Compound 18a], the midpoint of inhibition in series [1] (Homo sapiens, 72 h), the IC50, lay at 730 nM. For the same compound, in series [2] (setting [4]), the bioavailability is 27.9%. In series [2] (mouse, IV 5 mg/kg, plasma), the clearance stood at 107 mL/min/kg, the half-life was 1.59 h and the Vd was found to be 12.2 L/kg. Besides, the area under the curve (AUC) in series [2] (setting [5]) is 804 ng·h/mL. The AUC in series [2] (setting [6]) came out at 1680 ng·h/mL. Besides, in series [2] (setting [7]), the Cmax was found to be 199 ng/mL. For the same compound, in series [2] (setting [8]), the Tmax was 0.8 h. The same compound had an IC50 in series [3] (Homo sapiens, 72 h) of 690 nM.

For the compound `CNC(=O)c1cc2c(c(F)c1-c1c(Cl)c(F)cc3c1C[C@](c1ccccc1)([C@@H]1CCCN1)O3)C1CC1O2` (stereo partly drawn) [Compound 2a], the IC50 in series [1] (Homo sapiens, 72 h) was determined as 928 nM; in series [3] (Homo sapiens, 72 h) it was 414 nM. The bioavailability in series [2] (setting [4]) came out at 95.4%. Further, the clearance in series [2] (mouse, IV 5 mg/kg, plasma) worked out at 86.3 mL/min/kg. This compound also showed a half-life in series [2] (mouse, IV 5 mg/kg, plasma) of 3.82 h. Moreover, the AUC in series [2] (setting [5]) turned out to be 750 ng·h/mL; in series [2] (setting [6]), 4300 ng·h/mL. Also, the Vd in series [2] (mouse, IV 5 mg/kg, plasma) was determined as 28 L/kg. In series [2] (setting [7]), the Cmax turned out to be 474 ng/mL. Further, the Tmax in series [2] (setting [8]) is 4 h.

On to `NC(=O)c1cc2c(c(F)c1-c1c(Cl)c(F)cc3c1C[C@](c1ccccc1)([C@@H]1CCCN1)O3)CCC2O` (stereo partly drawn) [Compound 53a], for which, in series [1] (Homo sapiens, 72 h), it took 160 nM to reach half-maximal inhibition (IC50). Also, in series [2] (setting [4]), the bioavailability came out at 14.4%. Besides, in series [2] (mouse, IV 5 mg/kg, plasma), the clearance was 44.2 mL/min/kg, the half-life was 4.18 h and the Vd is 6.94 L/kg. For the same compound, the exposure (AUC) in series [2] (setting [5]) was determined as 1880 ng·h/mL. In addition, the AUC in series [2] (setting [6]) stood at 1620 ng·h/mL. Moreover, in series [2] (setting [7]), the Cmax amounted to 301 ng/mL. The Tmax in series [2] (setting [8]) came out at 0.5 h. Besides, the IC50 in series [3] (Homo sapiens, 72 h) came out at 150 nM.
